Three compounds from patent US20250326815A1, “STAPLE-CONTAINING POLYPEPTIDES AND APPLICATION THEREOF” (Soter Biopharma Pte. Ltd., priority 2021, published 2025) can be followed below.

Format in all cases: cell-based
One test deals with T1, GLP-1R (Homo sapiens, UniProt P43220).
T1 construct: host or cells: HEK293
Description: In vitro agonistic activity on GLP-1R (cAMP assay). Conditions: HEK293 cell line; for Agonistic activity on GLP-1R Max Activity (%): Max Dose 20 nM. Here is the method:
(§1) The cell lines were constructed by Shanghai WuXi AppTec.
(§2) The compounds to be assayed were serially diluted 4-fold with Bravo to obtain 10 concentrations, with a starting concentration of 30 μM.
(§3) 1) 100 nL of the compound was transferred to an OptiPlate-384 plate using Echo.
(§4) 2) The OptiPlate-384 plate was centrifuged at 1000 rpm for 5 seconds.
(§5) 1) A GLP-1R/GIPR/GCGR cell cryopreservation tube was quickly placed in warm water at 37° C. to thaw.
(§6) 2) The cell suspension was transferred to a 15 mL centrifuge tube, and gently washed with 10 ml of HBSS.
(§7) 3) The centrifuge tube was centrifuged at 1000 rpm at room temperature for 1 minute.
(§8) 4) The supernatant was discarded.
(§9) 5) The cells at the bottom were gently dispersed and gently washed with 10 ml of HBSS. The cells were centrifuged and sedimented, and finally resuspended with the assay buffer.
(§10) 6) Vi-cell was used to measure the cell density and viability.
(§11) 7) The concentration of GLP-1R/GIPR/GCGR cells was diluted to 2.0*105/mL with the assay buffer.
(§12) 8) […] of the diluted cell suspension was transferred to the OptiPlate-384 plate.
(§13) 9) The plate was incubated at room temperature for 30 minutes.
(§14) 1) 10 μL of 800 nM gradient diluted cAMP standard was added into an empty well of the OptiPlate-384 plate.
(§15) 2) 10 μL of cAMP assay reagent was added.
(§16) 3) The OptiPlate-384 plate was covered with a TopSeal-A film and incubated at room temperature for 60 minutes.
(§17) The TopSeal-A was peeled off and the plate was read on the EnVision.
For orientation: Cyclic AMP is a second messenger, typically raised through Gs and lowered through Gi signalling.

For the next test, the target named is T2, GCGR (Homo sapiens, UniProt P47871).
T2 construct: host or cells: HEK293
Description: In vitro agonistic activity on GCGR (cAMP assay). As to conditions: HEK293 cell line; for Agonistic activity on GCGR Max Activity (%): Max Dose 100 nM. Here is the method: as §1, §2, §3, §4, §5, §6, §7, §8, §9, §10, §11, §12, §13, §14, §15, §16, §17

A further test addresses T3, GIPR (Homo sapiens, UniProt P48546).
T3 construct: host or cells: CHO
T3 sequence (P48546 22-466): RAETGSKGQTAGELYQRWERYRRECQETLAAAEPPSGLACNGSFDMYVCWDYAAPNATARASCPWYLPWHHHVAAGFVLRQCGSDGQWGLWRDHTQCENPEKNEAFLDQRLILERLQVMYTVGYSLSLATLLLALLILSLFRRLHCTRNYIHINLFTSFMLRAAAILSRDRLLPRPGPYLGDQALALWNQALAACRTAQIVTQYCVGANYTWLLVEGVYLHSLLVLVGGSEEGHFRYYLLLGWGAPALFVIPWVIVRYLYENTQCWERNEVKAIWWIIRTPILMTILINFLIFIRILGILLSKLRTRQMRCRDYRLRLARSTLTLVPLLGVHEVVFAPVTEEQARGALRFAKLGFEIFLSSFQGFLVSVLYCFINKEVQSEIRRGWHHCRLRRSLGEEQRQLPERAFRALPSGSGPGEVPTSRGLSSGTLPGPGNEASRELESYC
Description: In vitro agonistic activity on GIPR (cAMP assay). Conditions: CHO cell line; for Agonistic activity on GIPR Max Activity (%): Max Dose 20 nM. The procedure:
as §1, §2, §3, §4, §5, §6, §7, §8, §9, §10, §11, §12, §13, §14, §15, §16, §17

T2 sequence (P47871 26-477, species assumed): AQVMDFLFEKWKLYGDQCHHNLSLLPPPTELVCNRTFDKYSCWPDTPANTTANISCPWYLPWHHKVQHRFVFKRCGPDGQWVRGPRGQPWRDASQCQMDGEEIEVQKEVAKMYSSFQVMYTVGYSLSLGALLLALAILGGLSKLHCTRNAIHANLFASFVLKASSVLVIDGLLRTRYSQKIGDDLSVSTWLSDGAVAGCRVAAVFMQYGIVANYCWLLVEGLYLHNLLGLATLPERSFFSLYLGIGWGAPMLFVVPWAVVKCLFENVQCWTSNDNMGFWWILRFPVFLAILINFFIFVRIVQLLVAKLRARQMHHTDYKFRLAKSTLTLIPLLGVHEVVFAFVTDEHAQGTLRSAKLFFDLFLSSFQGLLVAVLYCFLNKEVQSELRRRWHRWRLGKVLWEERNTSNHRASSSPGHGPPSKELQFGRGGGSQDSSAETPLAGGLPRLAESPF
T1 sequence (P43220 24-463, species assumed): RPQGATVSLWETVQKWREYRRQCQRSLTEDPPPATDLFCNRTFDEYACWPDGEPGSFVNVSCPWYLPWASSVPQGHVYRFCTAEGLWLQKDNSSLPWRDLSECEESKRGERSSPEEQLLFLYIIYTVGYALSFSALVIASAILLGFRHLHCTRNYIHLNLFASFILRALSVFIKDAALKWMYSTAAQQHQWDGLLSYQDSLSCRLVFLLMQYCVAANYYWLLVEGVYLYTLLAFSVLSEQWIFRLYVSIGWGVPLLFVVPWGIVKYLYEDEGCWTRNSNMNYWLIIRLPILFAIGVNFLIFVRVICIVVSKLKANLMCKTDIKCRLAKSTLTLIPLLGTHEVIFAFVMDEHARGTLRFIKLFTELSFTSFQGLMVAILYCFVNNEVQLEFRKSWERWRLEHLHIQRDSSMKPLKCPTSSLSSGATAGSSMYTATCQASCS

As usually defined, the EC50 is the midpoint of the concentration-response curve. `CC(C)C[C@H](NC(=O)[C@H](CC(C)C)NC(=O)[C@H](Cc1c[nH]c2ccccc12)NC(=O)[C@H](CCC(=O)O)NC(=O)[C@@H](NC(=O)[C@H](Cc1ccccc1)NC(=O)[C@@H]1CCCCNC(=O)CN(C(=O)COCCOCCNC(=O)COCCOCCNC(=O)CC[C@H](NC(=O)CCCCCCCCCCCCCCCCCCC(=O)O)C(=O)O)CC(=O)NCCCC[C@H](NC(=O)[C@H](CCC(=O)O)NC(=O)[C@H](CC(=O)O)NC(=O)[C@H](CC(C)C)NC(=O)[C@H](Cc2ccc(O)cc2)NC(=O)[C@H](CCCCN)NC(=O)[C@H](CO)NC(=O)[C@H](Cc2ccc(O)cc2)NC(=O)[C@H](CC(=O)O)NC(=O)[C@H](CO)NC(=O)[C@@H](NC(=O)[C@H](Cc2ccccc2)NC(=O)[C@@H](NC(=O)CNC(=O)[C@H](CCC(N)=O)NC(=O)C(C)(C)NC(=O)[C@@H](N)Cc2c[nH]cn2)[C@@H](C)O)[C@@H](C)O)C(=O)N[C@@H](CCCCN)C(=O)N[C@@H](C)C(=O)N[C@@H](CCCCN)C(=O)N1)C(C)C)C(=O)N[C@@H](CCC(=O)O)C(=O)NCC(=O)NCC(=O)N1CCC[C@H]1C(=O)N[C@@H](CO)C(=O)N[C@@H](CO)C(=O)NCC(N)=O` [WX002]: on GLP-1R, the EC50 stood at 0.0169 nM and the “Agonistic activity on GLP-1R Max Activity (%)” value was 106.52%. Besides, at GCGR, the EC50 was found to be 0.195 nM and the “Agonistic activity on GCGR Max Activity (%)” value is on record as 144.14%. In addition, on GIPR, the 50% effective concentration (EC50) was above 20 nM and the “Agonistic activity on GIPR Max Activity (%)” value is 4.06%.
Turning to `CC(C)C[C@H](NC(=O)[C@H](CC(C)C)NC(=O)[C@H](Cc1c[nH]c2ccccc12)NC(=O)[C@H](CCC(=O)O)NC(=O)[C@@H](NC(=O)[C@H](Cc1ccccc1)NC(=O)[C@@H]1CCCCNC(=O)CN(C(=O)COCCOCCNC(=O)COCCOCCNC(=O)CC[C@H](NC(=O)CCCCCCCCCCCCCCCCCCC(=O)O)C(=O)O)CC(=O)NCCCC[C@H](NC(=O)[C@H](CCCCN)NC(=O)[C@H](CCC(=O)O)NC(=O)[C@H](CC(=O)O)NC(=O)[C@H](CC(C)C)NC(=O)[C@H](Cc2ccc(O)cc2)NC(=O)[C@H](CCCCN)NC(=O)[C@H](CO)NC(=O)[C@H](Cc2ccc(O)cc2)NC(=O)[C@H](CC(=O)O)NC(=O)[C@H](CO)NC(=O)[C@@H](NC(=O)[C@H](Cc2ccccc2)NC(=O)[C@@H](NC(=O)CNC(=O)[C@H](CCC(N)=O)NC(=O)C(C)(C)NC(=O)[C@@H](N)Cc2c[nH]cn2)[C@@H](C)O)[C@@H](C)O)C(=O)N[C@@H](C)C(=O)N[C@@H](CCCCN)C(=O)N1)C(C)C)C(=O)N[C@@H](CCC(=O)O)C(=O)NCC(=O)NCC(=O)N1CCC[C@H]1C(=O)N[C@@H](CO)C(=O)N[C@@H](CO)C(=O)NCC(N)=O` [WX003], on GLP-1R, the EC50 worked out at 0.0582 nM and the “Agonistic activity on GLP-1R Max Activity (%)” value was 111.18%. At GCGR, a half-maximal response (EC50) required 0.624 nM and the “Agonistic activity on GCGR Max Activity (%)” value turned out to be 86.01%. In addition, on GIPR, the EC50 is above 20 nM and the “Agonistic activity on GIPR Max Activity (%)” value was 1.57%.
With `CC(C)C[C@@H]1NC(=O)[C@H](CC(C)C)NC(=O)[C@H](Cc2c[nH]c3ccccc23)NC(=O)[C@@H](NC(=O)[C@@H](NC(=O)[C@H](Cc2ccccc2)NC(=O)[C@H](CCC(=O)O)NC(=O)[C@H](CCCCN)NC(=O)[C@H](C)NC(=O)[C@H](CCCCN)NC(=O)[C@H](CCCCN)NC(=O)[C@H](CCC(=O)O)NC(=O)[C@H](CC(=O)O)NC(=O)[C@H](CC(C)C)NC(=O)[C@H](Cc2ccc(O)cc2)NC(=O)[C@H](CCCCN)NC(=O)[C@H](CO)NC(=O)[C@H](Cc2ccc(O)cc2)NC(=O)[C@H](CC(=O)O)NC(=O)[C@H](CO)NC(=O)[C@@H](NC(=O)[C@H](Cc2ccccc2)NC(=O)[C@@H](NC(=O)CNC(=O)[C@H](CCC(N)=O)NC(=O)C(C)(C)NC(=O)[C@@H](N)Cc2c[nH]cn2)[C@@H](C)O)[C@@H](C)O)C(C)C)CCCCNC(=O)CN(C(=O)COCCOCCNC(=O)COCCOCCNC(=O)CC[C@H](NC(=O)CCCCCCCCCCCCCCCCCCC(=O)O)C(=O)O)CC(=O)NCCCC[C@@H](C(=O)NCC(=O)NCC(=O)N2CCC[C@H]2C(=O)N[C@@H](CO)C(=O)N[C@@H](CO)C(=O)NCC(N)=O)NC1=O` [WX005], on GLP-1R, the EC50 was determined as 0.112 nM and the “Agonistic activity on GLP-1R Max Activity (%)” value was determined as 104.24%. Further, on GCGR, the EC50 turned out to be 2.99 nM and the “Agonistic activity on GCGR Max Activity (%)” value was determined as 140.57%. On GIPR, the EC50 is above 20 nM and the “Agonistic activity on GIPR Max Activity (%)” value was found to be 1.42%.
